The source of these data is ChEMBL document CHEMBL1201862, “PubChem BioAssay data set” (2004).

Some test systems named below: A549; 786-0; SNB-19; LOX IMVI; CAKI-1; HOP-62; OVCAR-4; UACC-257; M14; SF-268; SNB-75; SK-MEL-2; TK-10; OVCAR-3; HL-60; NCI-H226.
Test in all cases: NCI tumour cell line growth inhibition, 48 h

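Protocol summary: plate cells (96-well), add compound at 5 concentrations, incubate 48 h, interpolate endpoints linearly. At the GI50, growth is halved.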 Active and inactive are the calls of the source. No stated cut-off is given here; in the data, active = GI50 up to about 1.1 µM and inactive = higher.

With `COC(=O)c1nc(N)nc(O)c1CCCCCc1c(O)nc(N)nc1C(=O)OC`, the GI50 in the experiment on A549, in the experiment with 786-0, in the experiment with SNB-19, in the experiment on LOX IMVI, with CAKI-1 and with HOP-62 was > 50 µM (inactive) in each case. Also, the GI50 in the experiment on OVCAR-4, in the experiment with UACC-257, in the experiment on M14, in the experiment with SF-268, with SNB-75 and in the experiment on SK-MEL-2 was > 50 µM (inactive) throughout. For the same compound, the GI50 in the experiment with TK-10, with OVCAR-3 and in the experiment on HL-60 was > 50 µM (inactive) throughout.
Regarding `CCn1c2ccccc2c2ccc3c(c21)C(=O)C=CC3=O`, the GI50 in the experiment with A549 was 43.6 µM (inactive); in the experiment with NCI-H226 it was 18 µM (inactive); in the experiment with 786-0, 1.89 µM (inactive); with HOP-62, 7.52 µM (inactive); in the experiment on OVCAR-4, 4.06 µM (inactive); in the experiment with UACC-257 it was 14.6 µM (inactive). The GI50 with M14 was 3.93 µM (inactive); in the experiment on SF-268, 19.9 µM (inactive); with SNB-75, 29.6 µM (inactive); in the experiment with SK-MEL-2, 21.1 µM (inactive); in the experiment with TK-10, 16.4 µM (inactive); in the experiment with OVCAR-3, 13.5 µM (inactive). In the experiment on HL-60, the GI50 was 2.43 µM (inactive).
As to `COC(OC)c1cccnc1C`, the GI50 with A549, in the experiment with 786-0, in the experiment with SNB-19, with LOX IMVI, with CAKI-1 and with HOP-62 was > 100 µM (inactive) throughout. The GI50 in the experiment with OVCAR-4, with UACC-257, in the experiment with M14, in the experiment with SF-268, with SNB-75 and with SK-MEL-2 was > 100 µM (inactive) in each case. The GI50 in the experiment with TK-10, in the experiment on OVCAR-3 and in the experiment with HL-60 was > 100 µM (inactive) in each case.
With `COc1cc(C(CC(OC)OC)=C(C#N)C#N)cc(OC)c1OC`, the GI50 with A549 was 28.8 µM (inactive); in the experiment with NCI-H226, 0.485 µM (active); in the experiment with 786-0 it was 21.4 µM (inactive); in the experiment on SNB-19, 39.5 µM (inactive); in the experiment on LOX IMVI, 10.5 µM (inactive); in the experiment on CAKI-1, 34.3 µM (inactive). For the same compound, the GI50 is 18 µM (inactive) with UACC-257; 41.6 µM (inactive) with SF-268; 22.8 µM (inactive) in the experiment with SNB-75; 21.9 µM (inactive) with SK-MEL-2; 58.3 µM (inactive) with TK-10; 34.3 µM (inactive) in the experiment on OVCAR-3. In the experiment on HL-60, the GI50 is 19.5 µM (inactive).
Regarding `C/C(CC(=O)Nc1cc(Cl)c(Cl)cc1Cl)=N\NS(=O)(=O)c1ccc(C)cc1`, the GI50 with A549 was 45.7 µM (inactive); with NCI-H226, 17.9 µM (inactive); with 786-0, 41.9 µM (inactive); in the experiment on LOX IMVI, 39.3 µM (inactive); with HOP-62, 31.8 µM (inactive); in the experiment on UACC-257 it was 26 µM (inactive). For the same compound, the GI50 in the experiment with M14 was 34.8 µM (inactive); in the experiment on SF-268 it was 29.3 µM (inactive); in the experiment on SNB-75, 32.6 µM (inactive); in the experiment with SK-MEL-2, 28.9 µM (inactive); with TK-10, 48.5 µM (inactive); in the experiment with OVCAR-3, 25.5 µM (inactive). The GI50 in the experiment with HL-60 was 24.1 µM (inactive).
As for `CCN(CC)C(=O)Cc1c(C(=O)N(CC)CC)c(=O)nc2sccn12`, the GI50 in the experiment on A549, in the experiment with NCI-H226, in the experiment with 786-0, in the experiment with SNB-19, in the experiment on LOX IMVI and in the experiment on HOP-62 was > 100 µM (inactive) in each case. The GI50 with OVCAR-4, in the experiment on UACC-257, with M14, in the experiment with SF-268, in the experiment with SNB-75 and in the experiment with SK-MEL-2 was > 100 µM (inactive) each time. For the same compound, the GI50 in the experiment with TK-10, in the experiment on OVCAR-3 and in the experiment with HL-60 was > 100 µM (inactive) in each case.
Regarding `CON(C)C(=O)CCCO`, the GI50 in the experiment on A549, in the experiment on NCI-H226, in the experiment with 786-0, with SNB-19, with CAKI-1 and in the experiment with HOP-62 was > 100 µM (inactive) throughout. The GI50 in the experiment on OVCAR-4, in the experiment with UACC-257, in the experiment with M14, in the experiment on SF-268, in the experiment with SNB-75 and in the experiment on SK-MEL-2 was > 100 µM (inactive) in each case. Also, the GI50 in the experiment on TK-10, in the experiment with OVCAR-3 and with HL-60 was > 100 µM (inactive) each time.
`c1ccc2c(NCCCCCCNc3cccc4ccccc34)cccc2c1`: the GI50 in the experiment on A549 was 42 µM (inactive); in the experiment on NCI-H226 it was > 100 µM (inactive); in the experiment with 786-0 it was > 100 µM (inactive); in the experiment on SNB-19, > 100 µM (inactive); in the experiment on CAKI-1, > 100 µM (inactive); with HOP-62, > 100 µM (inactive). For the same compound, the GI50 in the experiment with OVCAR-4 was 66.1 µM (inactive); with UACC-257 it was > 100 µM (inactive); in the experiment with M14 it was > 100 µM (inactive); in the experiment on SF-268, > 100 µM (inactive); in the experiment on SNB-75, 2.77 µM (inactive); in the experiment with SK-MEL-2, > 100 µM (inactive). Further, the GI50 was > 100 µM (inactive) in the experiment on TK-10, > 100 µM (inactive) with OVCAR-3 and 51.5 µM (inactive) with HL-60.
On to `COc1ccc(C(=O)O[C@H]2[C@@H]3C=CO[C@@H](OC4OC(CO)C(O)C(O)C4O)[C@@H]3[C@@]3(CO)O[C@@H]23)cc1O` (stereo partly specified), for which the GI50 with A549, in the experiment with 786-0, with SNB-19, in the experiment on LOX IMVI, in the experiment with CAKI-1 and in the experiment with HOP-62 was > 100 µM (inactive) each time. Moreover, the GI50 with OVCAR-4, in the experiment with UACC-257, in the experiment with M14, with SF-268, in the experiment with SNB-75 and in the experiment with SK-MEL-2 was > 100 µM (inactive) throughout. The GI50 with TK-10, in the experiment on OVCAR-3 and in the experiment with HL-60 was > 100 µM (inactive) throughout.
Regarding `O=C(Nc1ccccc1-c1nc2ccccc2[nH]c1=O)c1ccccc1`, the GI50 in the experiment on A549 is 25.9 µM (inactive); in the experiment with NCI-H226, 25.2 µM (inactive); in the experiment with 786-0, 17.3 µM (inactive); with SNB-19 it was 24.2 µM (inactive); with LOX IMVI, 24.3 µM (inactive); in the experiment with CAKI-1, 29.9 µM (inactive). For the same compound, the GI50 was 19.5 µM (inactive) in the experiment on HOP-62; 19.9 µM (inactive) in the experiment on OVCAR-4; 44 µM (inactive) in the experiment with UACC-257; 59.6 µM (inactive) with M14; 22.9 µM (inactive) with SF-268; 13.8 µM (inactive) in the experiment with SNB-75. Further, the GI50 in the experiment on SK-MEL-2 was 23.5 µM (inactive); with TK-10 it was 17.1 µM (inactive); with OVCAR-3, 20.3 µM (inactive).
As for `O=Cc1c(O)ccc2ccc(O)c(-c3c(O)ccc4ccc(O)cc34)c12`, the GI50 in the experiment with A549 is > 100 µM (inactive); with NCI-H226, 28.6 µM (inactive); in the experiment with 786-0, > 100 µM (inactive); in the experiment with LOX IMVI, > 100 µM (inactive); in the experiment on CAKI-1 it was > 100 µM (inactive); with HOP-62, > 100 µM (inactive). Moreover, the GI50 with OVCAR-4 was > 100 µM (inactive); in the experiment on UACC-257, > 100 µM (inactive); in the experiment on M14, > 100 µM (inactive); in the experiment on SF-268, > 100 µM (inactive); with SNB-75, 88.7 µM (inactive); with SK-MEL-2, 31.8 µM (inactive). Further, the figures for the GI50 in the experiment with TK-10, with OVCAR-3 and in the experiment with HL-60 were > 100 µM (inactive), 48.2 µM (inactive) and > 100 µM (inactive), respectively.
`Clc1ccc(Nc2nc3ccccc3nc2-c2cccs2)cc1Cl`: the GI50 was 29.9 µM (inactive) in the experiment on A549; 34.1 µM (inactive) in the experiment with NCI-H226; 35.7 µM (inactive) in the experiment on 786-0; 36 µM (inactive) in the experiment on SNB-19; > 100 µM (inactive) in the experiment with HOP-62; 34.4 µM (inactive) in the experiment with UACC-257. The GI50 in the experiment on SF-268 is 36.3 µM (inactive); with SNB-75 it was 84.9 µM (inactive); with SK-MEL-2, > 100 µM (inactive); with TK-10 it was 42.1 µM (inactive); in the experiment with OVCAR-3, > 100 µM (inactive); in the experiment with HL-60 it was 12.2 µM (inactive).
For the compound `CCN1C(C)=NC2C(=O)c3ccccc3C(=O)C21` (stereo unspecified), the GI50 in the experiment on A549 was 41.6 µM (inactive); with NCI-H226, 63 µM (inactive); with 786-0, 65.5 µM (inactive); with SNB-19 it was 81.7 µM (inactive); in the experiment with LOX IMVI, 46.9 µM (inactive); in the experiment with HOP-62 it was 37.4 µM (inactive). In addition, the GI50 in the experiment on OVCAR-4 was 21 µM (inactive); in the experiment with UACC-257, 31.2 µM (inactive); in the experiment on M14 it was 66.5 µM (inactive); in the experiment on SF-268 it was 57.7 µM (inactive); in the experiment with SNB-75 it was 37.8 µM (inactive); in the experiment on SK-MEL-2, > 100 µM (inactive). Also, the GI50 was > 100 µM (inactive) with TK-10, 27.4 µM (inactive) in the experiment with OVCAR-3 and 37.8 µM (inactive) in the experiment on HL-60.
`CS(=O)(=O)OCCN1CCN(C(=O)c2ccc(Cl)c3c(Nc4ccc(S(=O)(=O)N=C(N)N)cc4)c4ccccc4nc23)CC1`: the GI50 in the experiment on A549, in the experiment on NCI-H226, in the experiment with 786-0, with SNB-19, in the experiment on CAKI-1 and in the experiment on HOP-62 was > 100 µM (inactive) each time. Besides, the GI50 in the experiment with OVCAR-4, in the experiment on UACC-257, with M14, with SF-268, with SNB-75 and in the experiment with SK-MEL-2 was > 100 µM (inactive) throughout. In addition, the GI50 in the experiment on TK-10, in the experiment on OVCAR-3 and with HL-60 was > 100 µM (inactive) each time.
